According to US10201523B2, “Use of wilforlide A for overcoming chemotherapy resistance” (WESTERN UNIVERSITY OF HEALTH SCIENCES, priority 2013, dated 2019):
Several values for one entry are separate records, joined by “and”; a condition that tells them apart may be missing. Equal entries are not always repeated.

Key:
PC3-TxR [1] = test: SRB cell viability assay, 72 h wilforlide A dose-response; format: cell-based, human; details: for A at 565 nm: background = 0.044
Procedure: The determination of the wilforlide A IC50. The IC50 for wilforlide A was determined in vitro for the purpose of identifying wilforlide A concentrations that could be used for determining its chemosensitizing effect (CE) in cell cultures of the docetaxel-resistant prostate cancer line PC3-TxR (Obtained from Prof. Evan T. Keller, University of Michigan).
Post-recovery, the plating media was aspirated from the cell cultures, and replaced with 50 μl per well of RPMI containing a designated concentration of wilforlide A. Then, the cells were incubated in the presence of the wilforlide A media for 72 hours. The 50 μl wilforlide A aliquots were prepared by making 1:3 serial dilutions of a wilforlide A stock solution (0.5 mg/ml in DMSO) to with concentrations ranging from 1×10^2 to 1×10^−3 μg/ml.

PC3-TxR [2] = test: SRB cell viability assay, docetaxel with/without wilforlide A pretreatment; format: cell-based, human; details: PC3-TxR (docetaxel-resistant); 0.6-5.0 μg/ml pretreatment
DU145-TxR = test: as above; format: cell-based; details: DU145-TxR (docetaxel-resistant); 2.5 μg/ml pretreatment
Source text: FIG. 4 summarizes the data of Tables 18 and 19 in a graphical format.

K562/Dox = test: SRB cell viability assay, daunorubicin with/without wilforlide A pretreatment; format: cell-based; details: K562/Dox (daunorubicin-resistant); 2.5 μg/ml pretreatment
Source text: Wilforlide A sensitizes the daunorubicin-resistant myelogenous leukemia line K562/Dox, to daunorubicin. […] FIG. 5 summarizes the data of Tables 20 and 21 in a graphical format.

SkBr3-TxR = test: SRB cell viability assay, lapatinib with/without wilforlide A pretreatment; format: cell-based; details: SkBr3-TxR (lapatinib-resistant); 2.5 μg/ml pretreatment
Bt474-TxR = test: as above; format: cell-based; details: BT474-TxR (lapatinib-resistant); 2.5 or 25 μg/ml pretreatment
[3] = Maximum tolerated dose study, single and multiple dose (sdMTD, mdMTD); format: in vivo; details: single and multiple (daily, 7 days) dose, CD-1 mice
Procedure: Maximum tolerated dose (MTD)s of wilforlide A were determined for single MTD (sdMTD) and multiple dose MTD (mdMTD) protocols. […] A seven day-long sdMTD study was performed in which the single dose was administered on day one. A seven day-long mdMTD study was also performed in which wilforlide was administered daily.
(§1) The administration routes used in these studies were intravenous (i.v.), oral gavage (p.o.), and intraperitoneal (i.p.) administration. […] More specifically, working concentrations of wilforlide A were prepared by: (i) dissolving wilforlide A inDMSO at a concentration of 3 mg/ml at 80° C. for use with i.p. administration; (ii) dissolving wilforlide A in Capmul™ at a concentration of 3 mg/ml for use with p.o. administration; and (iii) dissolving wilforlide A inDMSO at a concentration of 1.5 mg/ml at 80° C., and then diluted ten times in 40% HBCD (w/v) for use with i.v. administration. […] Thus, the MTD study was started with these doses.
For each dose regimen tested, 12 CD-1 mice (6 males and 6 females) received appropriate volume of each wilforlide A preparation. The mice were housed with food and water ad libitum. All mice were monitored for the four hour period that immediately followed wilforlide A administration for indications of acute toxicity, as well as monitored at least 3 times daily for one week for indications of delayed toxicity. The mice were also weighed 24 hours post treatment as well as every other day during the week-long study.

[4] = Pharmacokinetics of wilforlide A in mice (plasma, HPLC-MS/MS); format: in vivo; details: CD-1 mice; for Cmax: plasma; for T1/2: terminal elimination
Procedure: as §1
To determine the pharmacokinetics of wilforlide A in mice, wilforlide A was formulated for i.p., p.o., and i.v. administration as describe above, for doses of 6, 30, and 1.2 mg/kg, respectively. Four CD-1 mice were sacrificed prior to wilforlide A administration and at: (i) 5, 10, 15, 20, 30, and 60 min after i.p. administration; (ii) 2, 5, 10, 15, 20, and 30 min after p.o. administration; and (iii) 1, 2, 3, and 4 hours after i.v. administration. At each time point, blood was drawn via heart puncture and plasma was separated by a five min centrifution at 10000 rpm. Plasma wilforlide A concentrations were measured using a validated HPLC-MS/MS method. The peak drug concentration (Cmax) and time to peak drug concentration (Tmax) were read directly from the plasma concentration time course data, while the terminal elimination half-life (T1/2) was calculated to be 0.693/Ke, where Ke was the terminal phase elimination rate. A-C, respectfully.

PC3-TxR cell tumors = test: In vivo tumor xenograft study, chemosensitizing effect with docetaxel; design: species or system SCID mice
Source text: To perform this study, tumors were caused to form in fifty six severe four to six week-old, severe combined immunodeficient (SCID) male mice (Taconic Farms, Inc. Oxnard, Calif.) that weighed from 15 to 20 g were obtained and housed in cages with HEPA-filtered air (12-hr light/dark cycle) by subcutaneously injecting PC3-TxR cells in the mice. To prepare the cells for injection, the cells were suspended in a 1:1 mixture of Matrigel (BC Biosciences, Franklin Lakes, N.J., U.S.A.) and RPMI 1640 (Mediatech, Manassas, Va., or Life Technologies, Grand Island, N.Y.). Then the cells were subcutaneously implanted into planks of mice via injection. Mice that had consistently shown tumor growth for fourteen days following the injection of cells were used in the tumor studies. More specifically, these studies were initiated when the xenografted tumors reached a tumor size of about 120 mm^3, calculated by the formula for a semiepplipoid, i.e., Volume=Width2×(Length/2).

[5] = Water solubility of wilforlide A; format: physicochemical
PC3 = test: SRB cell viability assay, docetaxel with/without wilforlide A pretreatment; details: PC3 (docetaxel-sensitive); 0.6, 1.25 or 2.5 μg/ml pretreatment
Procedure: Following the 72 hour wilforlide A treatment, a sulforhodamine B (SRB) assay was used to quantitate living cells. To perform the assay, the wilforlide A media was aspirated from each well, and replaced with a 10% solution of cold trichloroacetic acid (TCA) (Cat #: T6399, purchased from Sigma-Aldrich), and incubated for one hour at 4° C. After the TCA incubation, the TCA solution was aspirated, and the cells were washed five times with tap water. After removing the last wash, the plates were left with lids off at room temperature until the surfaces were dry, which took one to two hours. Then 50 μl of a 0.4% solution of sul-forhodamine B (SRB) sodium salt (Cat #: S9012, purchased from Sigma-Aldrich) was added to each well and the plates were incubated at room temperature for 20 to 30 minutes. Afterwards, the wells were washed five times with a 1% acetic acid solution in 10 mM TRIS base (Cat #: 161-0719, purchased from Bio-Rad Laboratories, Hercules, Calif.). The plates were subsequently left to dry for several hours or overnight. SRB that remained in the dried wells was solubilized by adding 100 μl of SRB solubilization solution (10 mM TRIS base) to each well, and placing the plates either on a gently-moving shaker or letting the plates remain stationary at room temperature until the SRB dissolves, which takes about five to ten minutes. The amount of SRB in each well, which correlated directly to the number of living cells at fixation, was determined spectrophotometrically at an absorbance of 565 nm by a microplate reader.
In these comparisons, the in vitro IC50 of a tested chemotherapeutic drug (D) in cell culture was compared to the drug's IC50 when drug treatment followed pretreatment of the cells with wilforlide A (Purchased from PI & PI Technology Inc. of Guangzhou, China or the National Institutes for Food and Drug Control in Beijing, China).
Triplicate wells were assigned to each experimental condition tested, and a 24 hour recovery period for the cells following the seeding of the wells was allowed. During the recovery period, the cells were incubated at 37° C. and 5% CO2.
At the end of the two hour pre-treatment period, 50 μl aliquots of the desired chemotherapeutic drug RPMI medium were added according to the amounts provided in Table 2.
After adding the various doses of chemotherapeutic drugs, as described above, the cells were incubated for an additional 72 hours under the same temperature and atmospheric conditions used for the pre-treatment step.
The cells were then incubated for 72 hours at 37° C. and 5% CO2. After the 72 hour incubation, sulforhodamine B (SRB) assays were performed as described in Example 1 to quantitate living cells.

Q: For `CC1(C)[C@@H](O)CC[C@]2(C)[C@H]3CC=C4[C@@H]5C[C@@]6(C)C[C@H](OC6=O)[C@]5(C)CC[C@@]4(C)[C@]3(C)CC[C@@H]12` [wilforlide A, 3-epiabruslactone A], which “% viable” value (PC3-TxR [1]; wilforlide A 0.001 μg/ml 72 h) is on record?
A: The value was 100.0%.

Q: What about the “mean A” value (PC3-TxR [1]; wilforlide A 0.001 μg/ml 72 h) of the same molecule?
A: The value was 2.618.

Q: What about the “A at 565 nm” value (PC3-TxR [1]; wilforlide A 0.001 μg/ml 72 h) of the same molecule?
A: Its value is 2.599 and 2.624 and 2.607 and 2.635 and 2.593 and 2.646.

Q: What about the “% viable” value (PC3-TxR [1]; wilforlide A 0.1 μg/ml 72 h) of the same molecule?
A: Its value is 99.6%.

Q: What about the “mean A” value (PC3-TxR [1]; wilforlide A 0.1 μg/ml 72 h) of the same molecule?
A: The value was 2.606.

Q: What about the “A at 565 nm” value (PC3-TxR [1]; wilforlide A 0.1 μg/ml 72 h) of the same molecule?
A: The value was 2.611 and 2.592 and 2.610 and 2.617 and 2.615.

Q: What about the “% viable” value (PC3-TxR [1]; wilforlide A 0.333 μg/ml 72 h) of the same molecule?
A: The value was 100.9%.

Q: And the “mean A” value (PC3-TxR [1]; wilforlide A 0.333 μg/ml 72 h)?
A: The value was 2.642.

Q: What about the “A at 565 nm” value (PC3-TxR [1]; wilforlide A 0.333 μg/ml 72 h) of the same molecule?
A: The value was 2.645 and 2.618 and 2.661 and 2.646 and 2.664 and 2.617.

Q: And the “% viable” value (PC3-TxR [1]; wilforlide A 1 μg/ml 72 h)?
A: The value was 101.5%.

Q: What about the “mean A” value (PC3-TxR [1]; wilforlide A 1 μg/ml 72 h) of the same molecule?
A: Its value is 2.657.

Q: And the “A at 565 nm” value (PC3-TxR [1]; wilforlide A 1 μg/ml 72 h)?
A: The value was 2.626 and 2.629 and 2.755 and 2.658 and 2.659 and 2.616.

Q: And the “% viable” value (PC3-TxR [1]; wilforlide A 3.33 μg/ml 72 h)?
A: The value was 77.7%.

Q: What about the “mean A” value (PC3-TxR [1]; wilforlide A 3.33 μg/ml 72 h) of the same molecule?
A: Its value is 2.033.

Q: What about the “A at 565 nm” value (PC3-TxR [1]; wilforlide A 3.33 μg/ml 72 h) of the same molecule?
A: Its value is 2.082 and 1.928 and 2.081 and 1.950 and 2.070 and 2.088.

Q: And the “% viable” value (PC3-TxR [1]; wilforlide A 10 μg/ml 72 h)?
A: Its value is 13.4%.

Q: And the “mean A” value (PC3-TxR [1]; wilforlide A 10 μg/ml 72 h)?
A: Its value is 0.351.

Q: And the “A at 565 nm” value (PC3-TxR [1]; wilforlide A 10 μg/ml 72 h)?
A: Its value is 0.399 and 0.358 and 0.348 and 0.325 and 0.320 and 0.357.

Q: And the “% viable” value (PC3-TxR [1]; wilforlide A 33.3 μg/ml 72 h)?
A: Its value is 2.9%.

Q: And the “mean A” value (PC3-TxR [1]; wilforlide A 33.3 μg/ml 72 h)?
A: The value was 0.076.

Q: And the “A at 565 nm” value (PC3-TxR [1]; wilforlide A 33.3 μg/ml 72 h)?
A: Its value is 0.096 and 0.072 and 0.074 and 0.073 and 0.069.

Q: And the “% viable” value (PC3-TxR [1]; wilforlide A 100 μg/ml 72 h)?
A: The value was 1.0%.

Q: And the “mean A” value (PC3-TxR [1]; wilforlide A 100 μg/ml 72 h)?
A: Its value is 0.025.

Q: What about the “A at 565 nm” value (PC3-TxR [1]; wilforlide A 100 μg/ml 72 h) of the same molecule?
A: The value was 0.023 and 0.024 and 0.033 and 0.027 and 0.018.

Q: And the “chemosensitizing effect to docetaxel” value (PC3-TxR [2])?
A: The value was “sensitizes”.

Q: And the “chemosensitizing effect to docetaxel” value (DU145-TxR)?
A: Its value is “sensitizes”.

Q: What about the “chemosensitizing effect to daunorubicin” value (K562/Dox) of the same molecule?
A: Its value is “sensitizes”.

Q: And the “chemosensitizing effect to lapatinib” value (SkBr3-TxR)?
A: Its value is “sensitizes”.

Q: And the “chemosensitizing effect to lapatinib” value (Bt474-TxR)?
A: Its value is “sensitizes”.

Q: And the “tolerability in MTD study” value ([3]; 6 mg/kg i.p.)?
A: Its value is “well tolerant”.

Q: What about the “tolerability in MTD study” value ([3]; 30 mg/kg p.o.) of the same molecule?
A: The value was “well tolerant”.

Q: What about the “tolerability in MTD study” value ([3]; […] i.v.) of the same molecule?
A: Its value is “well tolerant”.

Q: What about the Cmax ([4]; i.p. 6 mg/kg) of the same molecule?
A: The Cmax was 0.75 µg/mL.

Q: What about the Cmax ([4]; p.o. 30 mg/kg) of the same molecule?
A: The Cmax was 0.03 µg/mL.

Q: And the T1/2 ([4]; i.p. 6 mg/kg)?
A: Its T1/2 is 41.0 min.

Q: What about the T1/2 ([4]; i.v. […]) of the same molecule?
A: Its T1/2 is 11.2 min.

Q: What about the T1/2 ([4]; p.o. 30 mg/kg) of the same molecule?
A: Its T1/2 is 25.6 min.

Q: And the tumor growth (PC3-TxR cell tumors; Group 3: docetaxel 20 mg/kg i.v. weekly + wilforlide A […] i.v. weekly + 6 mg/kg i.p. daily, vs other groups)?
A: Its tumor growth is “significant retardation of tumor growth”.

Q: And the tumor growth (PC3-TxR cell tumors; wilforlide A alone (Groups 6, 7))?
A: Its tumor growth is “did not significantly inhibit the tumor growth”.

Q: What about the “effect on docetaxel's anti-tumor effect” value (PC3-TxR cell tumors; wilforlide A with docetaxel 20 mg/kg i.v.) of the same molecule?
A: Its value is “significantly enhanced docetaxel's anti-tumor effect”.

Q: And the water solubility [5]?
A: Its water solubility is “poorly water soluble”.

Q: And the “chemosensitizing effect to docetaxel” value (PC3)?
A: Its value is “does not significantly enhance the sensitivity”.
